The values that follow come from patent US7238725B2, “Tricyclic compounds useful for the treatment of inflammatory and allergic disorders: process for their preparation and pharmaceutical compositions containing them” (Glenmark Pharmaceuticals Ltd., priority 2002, dated 2007).

As a reminder, the melting point is the temperature of the solid-liquid transition. Usually IC50 stands for the concentration at which inhibition is half-maximal.

Tested on in the first data set: not given
Assay: not given
Conditions: not given
Turning to `O=C(Nc1c(Cl)cncc1Cl)c1ccc(OCc2ccccc2)c2oc3ccccc3c12` [Example 37, N-(3,5-dichloropyrid-4-yl)-4-benzyloxy dibenzo[b,d]furan-1-carboxamide], the melting point was 269 to 270 °C (dec.).

`COc1ccc(S(=O)(=O)Nc2c(Cl)cccc2Cl)c2c1[nH]c1ccccc12` [Example 77, N4-(2,6-Dichlorophenyl)-1-methoxy-9H-4-carbazolsulphonamide] had a melting point of 201 to 205 °C.

For `COc1ccc(S(=O)(=O)Nc2c(Cl)cncc2Cl)c2c1oc1ccccc12` [Example 54, N-(3,5-dichloropyrid-4-yl)-4-methoxy dibenzo[b,d]furan-1-sulfonamide], the melting point was 242 to 244 °C.

On to `O=C(Nc1cccnc1)c1ccc(OC(F)F)c2oc3ccc(C(F)(F)F)cc3c12` [Example 16, N-(pyrid-3-yl)-4-difluoromethoxy-8-trifluoromethyl dibenzo[b,d]furan-1-carboxamide], for which the melting point fell in the range of 235 to 236 °C.

For the compound `COc1c(C(=O)Nc2c(Cl)cncc2Cl)ccc2c1oc1ccccc12` [Example 52, N-(3,5-dichloropyrid-4-yl)-4-methoxy dibenzo[b,d]furan-3-carboxamide], the melting point is 176 °C (dec.).

The next data set concerns the target PDE4 enzyme. The data set is described as follows: Inhibition of Phosphodiesterase Enzymes (PDE4), [3H]cAMP hydrolysis. In kind it is biochemical. Particulars: PDE4 enzyme, 1 μM cAMP and 3H cAMP, 34° C.; read-out: IC50. Here is the method:
Inhibition of Phosphodiesterase Enzymes (PDE4)
In this assay, PDE4 enzyme converts [^3H] cAMP to the corresponding [^3H] 5′-AMP in proportion to the amount of PDE4 present The [^3H] 5′-AMP then was quantitatively converted to free [^3H] adenosine and phosphate by the action of snake venom 5′-nucleotidase.
The assay was performed with modification of the method of Thompson and Appleman (Biochemistry; 1971; 10; 311-316) and Schwartz and Passoneau (Proc. Natl. Acad. Sci. U.S.A. 1974; 71; 3844-3848), both references incorporated herein by reference in their entirety, at 34° C. In a 200 ul total reaction mixture, the reaction mixture contained 12.5 mM of Tris, 5 mM MgCl2, 1 μM cAMP (cold) and ^3H cAMP (0.1 uCi), (Amersham). […] Drug samples were then added in the reaction mixture (25 μl/tube). The assay was initiated by addition of enzyme mix (75 μl) and the mixture was incubated for 20 minutes at 34° C. The reaction was stopped by boiling the tubes for 2 mins at 100° C. in a water bath. After cooling on ice for 5 minutes and addition of 50 ug/reaction of 5′-nucleotidase snake venom from Crotalus atrox incubation was carried out again for 20 min. at 34° C. The unreacted substrate was separated from (^3H) Adenosine by addition of Dowex AG 1-X8 (Biorad Lab), (400 ul) which was prequilibrated (1:1:1) in water and ethanol. Reaction mixture was then thoroughly mixed, placed on ice for 15 minutes, vortexed and centrifuged at 14,000 r.p.m. for 2 mins. After centrifugation, a sample of the supernatant was taken and added in 24 well optiplates containing Scintillant (1 ml) and mixed well. The samples in the plates were then determined for radioactivity in a Top Counter and the PDE4 activity was estimated. PDE4 enzyme was present in quantities that yield <30% total hydrolysis of substrate (linear assay conditions).
Results were expressed as percent inhibition (IC50) in nM concentrations. The IC50 values were determined from the concentration curves by nonlinear regression analysis.
The IC50 value for the compound examined was determined from concentration-response curves in which varying range of concentrations were considered as shown in table 1
As to `CCOc1ccc(C(=O)Nc2c(Cl)c[n+]([O-])cc2Cl)c2c1oc1ccccc12` [Example 68, 3,5-Dichloro-4-(4-ethoxydibenzo[b,d]furan-1-ylcarboxamido)pyridine-N-oxide], the IC50 worked out at 57 nM.

Take `COc1ccc(C(=O)Nc2c(Cl)cncc2Cl)c2c3cc(Cl)ccc3n(Cc3ccc(F)cc3)c12` [Example 84, N4-(3,5-dichloro-4-pyridyl)-6-chloro-9-(4-fluorobenzyl)-1-methoxy-9H-4-carbazole carboxamide]: the IC50 was 14.6 nM.

As to `COc1ccc(C(=O)Nc2ccncc2)c2c3ccccc3n(Cc3ccc(F)cc3)c12` [Example 87, N4-(4-pyridyl)-9-(4-fluorobenzyl)-1-methoxy-9H-4-carbazole carboxamide], the IC50 is 393 nM.

In the case of `COc1ccc(C(=O)Nc2c(Cl)cncc2Cl)c2c3cc(Cl)ccc3n(Cc3ccccc3)c12` [Example 82, N4-(3,5-dichloro-4-pyridyl)-9-benzyl-6-chloro-1-methoxy-9H-4-carbazole carboxamide], the IC50 was 19.6 nM.

In the case of `O=C(Nc1c(Cl)cncc1Cl)c1ccc(OC(F)F)c2oc3ccc(N4CCCC4=O)cc3c12` [Example 121, N-(3,5-dichloropyrid-4-yl)-4-difluoromethoxy-8-(pyrrolidine-2-one-1-yl)-dibenzo[b,d]furan-1-carboxamide], the IC50 was 21.5 nM.

On to `COc1ccc(C(=O)Nc2c(Cl)cncc2Cl)c2c3cc(Cl)ccc3n(CC3CCCCC3)c12` [Example 83, N4-(3,5-dichloro-4-pyridyl)-6-chloro-9-cyclohexylmethyl-1-methoxy-9H-4-carbazole carboxamide], for which the IC50 worked out at 5.26 nM.

As for `COc1ccc(C(=O)Nc2ccncc2)c2c3cc(Cl)ccc3n(Cc3ccc(F)cc3)c12` [Example 93, N4-(4-pyridyl)-6-chloro-9-(4-fluorobenzyl)-1-methoxy-9H -4-carbazolecarboxamide], the IC50 was 161 nM.

In the case of `O=C(Nc1cccnc1)c1ccc(OC(F)F)c2oc3ccccc3c12` [Example 22, N-(pyrid-3-yl)-4-difluoromethoxy dibenzo[b,d]furan-1-carboxamide], the IC50 worked out at 105 nM.

As for `COc1ccc(C(=O)Nc2c(Cl)c[n+]([O-])cc2Cl)c2c3cc(Cl)ccc3n(CC3CCCCC3)c12` [Example 99, N4-(3,5-dichloro-4-pyridyl-N-oxide)-6-chloro-9-cyclohexylmethyl-1-methoxy-9-H-4-carbazolecarboxamide], the IC50 was determined as 30.1 nM.

Consider `COc1ccc(C(=O)Nc2c(Cl)cncc2Cl)c2c3ccccc3n(Cc3ccccc3)c12` [Example 88, N4-(3,5-dichloro-4-pyridyl)-9-benzyl-1-methoxy-9H-4-carbazolecarboxamide], for which the IC50 came to 129 nM.

For `O=C(Nc1ccc[n+]([O-])c1)c1ccc(OC(F)F)c2oc3ccccc3c12` [Example 23, N-(pyrid-3-yl)-4-difluoromethoxy dibenzo[b,d]furan-1-carboxamide-N1-oxide], the IC50 came to 147 nM.

Take `COc1ccc(C(=O)Nc2ccncc2)c2c1[nH]c1ccccc12` [Example 79, N4-(4-pyridyl)-1-methoxy-9H-4-carbazole carboxamide]: the IC50 was found to be 128 nM.

Consider `O=C(Nc1cccnc1)c1ccc(OCC2CC2)c2oc3ccccc3c12` [Example 29, N-(pyrid-3-yl)-4-cyclopropylmethoxy dibenzo[b,d]furan-1-carboxamide], for which the IC50 is 351 nM.

Consider `CCOc1ccc(C(=O)Nc2c(Cl)cncc2Cl)c2c1oc1ccccc12` [Example 60, 3,5-Dichloro-4-(4-ethoxydibenzo[b,d]furan-1-ylcarboxamido)pyridine], for which the half-maximal inhibitory concentration (IC50) was determined as 86.4 nM.

For `O=C(Nc1ccncc1)c1ccc(OCC2CC2)c2oc3ccccc3c12` [Example 27, N-(pyrid-4-yl)-4-cyclopropylmethoxy dibenzo[b,d]furan-1-carboxamide], the IC50 was determined as 73.5 nM.

Turning to `O=C(Nc1cc[n+]([O-])cc1)c1ccc(OC(F)F)c2oc3ccc(C(F)(F)F)cc3c12` [Example 15, N-(pyrid-4-yl)-4-difluoromethoxy-8-trifluoromethyl dibenzo[b,d]furan-1-carboxamide-N1-oxide], the IC50 was determined as 67.3 nM.

For `COc1ccc(C(=O)Nc2ccncc2)c2c1oc1ccc(Br)cc12` [Example 43, N-(pyrid-4-yl)-4-methoxy-8-bromo-dibenzo[b,d]furan-1-carboxamide], the IC50 is 61.2 nM.

For the compound `COc1ccc(Cn2c3ccc(Cl)cc3c3c(C(=O)Nc4c(Cl)c[n+]([O-])cc4Cl)ccc(OC)c32)cc1` [Example 98, N4-(3,5-dichloro-4-pyridyl-N-oxide)-6-chloro-9-(4-methoxybenzyl)-1-methoxy-9H-4-carba-zolecarboxamide], the IC50 came to 39.6 nM.

As for `COc1ccc(C(=O)Nc2ccncc2)c2c1oc1ccccc12` [Example 3, N-(pyrid-4-yl)-4-methoxy dibenzo[b,d]furan-1-carboxamide], the IC50 came to 8.68 nM.

As to `O=C(Nc1cc[n+]([O-])cc1)c1ccc(OC(F)F)c2oc3ccccc3c12` [Example 21, N-(pyrid-4-yl)-4-difluoromethoxy dibenzo[b,d]furan-1-carboxamide-N1-oxide], the IC50 is 22.6 nM.

Turning to `COc1ccc(C(=O)Nc2c(Cl)cncc2Cl)c2c3cccc(Cl)c3n(Cc3ccc(F)cc3)c12` [Example 95, N4-(3,5dichloro-4pyridyl)-8-chloro-9-(4-Fluorobenzyl)-1-methoxy-9H-4-carbazole carboxamide], the IC50 is 78.9 nM.

For `COc1ccc(C(=O)Nc2c(Cl)c[n+]([O-])cc2Cl)c2c3cc(Cl)ccc3n(Cc3ccc(F)cc3)c12` [Example 97, N4-(3,5-dichloro-4-pyridyl-N-oxide)-6-chloro-9-(4-fluorobenzyl)-1-methoxy-9H-4-carbazolecarboxamide], the IC50 is 40.3 nM.

For the compound `COc1ccc(C(=O)Nc2c(Cl)cncc2Cl)c2c3ccccc3n(Cc3ccc(F)cc3)c12` [Example 86, N4-(3,5-dichloro-4-pyridyl)-9-(4-fluorobenzyl)-1-methoxy-9H-4-carbazole carboxamide], the IC50 amounted to 72 nM.

For `COc1ccc(Cn2c3ccc(Cl)cc3c3c(C(=O)Nc4c(Cl)cncc4Cl)ccc(OC)c32)cc1` [Example 85, N4-(3,5-dichloro-4-pyridyl)-6-chloro-9-(4-methoxybenzyl)-1-methoxy-9H-4-carbazolecarboxamide], the IC50 amounted to 8.15 nM.

With `O=C(Nc1ccncc1)c1ccc(OC(F)F)c2oc3ccccc3c12` [Example 20, N-(pyrid-4-yl)-4-difluoromethoxy dibenzo[b,d]furan-1-carboxamide], the IC50 came out at 15.8 nM.

`COc1ccc(C(=O)Nc2c(Cl)cncc2Cl)c2c3cccc(Cl)c3n(CC3CCCCC3)c12` [Example 94, N4-(3,5dichloro-4-pyridyl)-8-chloro-9-cyclohexylmethyl-1-methoxy-9H-4-carbazole carboxamide]: the IC50 stood at 281 nM.

`COc1ccc(C(=O)Nc2ccncc2)c2c1oc1ccc(I)cc12` [Example 46, N-(pyrid-4-yl)-4-methoxy-8-iodo-dibenzo[b,d]furan-1-carboxamide]: the IC50 turned out to be 36.8 nM.

As to `COc1ccc(C(=O)Nc2ccncc2)c2c1oc1ccc([N+](=O)[O-])cc12` [Example 39, N-(pyrid-4-yl)-4-methoxy-8-nitro dibenzo[b,d]furan-1-carboxamide], the IC50 was 31.7 nM.

On to `COc1ccc(NS(=O)(=O)c2ccc(OC)c3sc4ccc(S(=O)(=O)N(C)C)cc4c23)cc1` [Example 115, N1-(4-methoxyphenyl)-8,N8-dimethyl-4-methoxydibenzo[b,d]thiophen-8,1-disulfonamide], for which the IC50 was 37.4 nM.
